Consider one compound from patent US9212204B2, “Treatment of rett syndrome using glycyl-L-2-methylprolyl-L-glutamic acid” (priority 2011, dated 2015).

Each structure is given as a SMILES string. Read-outs that look alike come from different tables or passages of the source. Non-standard residues stand in square brackets, D forms with d. Residues, ends and D or L forms follow the SMILES beside them. αMeP = C[C@@]1(C(=O)O)CCCN1

The subject of one series is MeCP2-/y mice. The series is described as follows: Life span of MeCP2-/y mice (Example 10). The class given is in vivo, mouse. The following applies: 20 mg/kg i.p. daily; compared to MeCP2 KO littermates. On the procedure: For the survival measurements, the nocturnal activity analysis and the immunoblot analysis, G-2-MePE (synthesised Albany Molecular Research Inc. (Albany, N.Y.) and supplied by Neuren Pharmaceuticals Limited) is administered daily via intra-peritoneal injections (20 mg/kg, vehicle=saline, 0.01% BSA). The treatment starts at PI 5 and is maintained throughout the course of the experiments. For intracellular physiology experiments, the mice are injected daily with G-2-MePE (20 mg/kg body weight, vehicle=saline, 0.01% BSA) for 2 weeks, from P15 to P28-P32 when they are used for acute slice preparation. For optical imaging experiments, mice are injected with G-2-MePE (20 mg/kg body weight, vehicle=saline, 0.01% BSA) daily from the day of the lid suture to the day of imaging.
To test whether G-2-MePE treatment will impact the development of cardinal features of the RTT disease, 2 week old mutant animals are given daily intra-peritoneal injections for the course of their lifespan. Measurements of synaptic physiology, synaptic molecular composition, and cortical plasticity are then acquired as detailed below, along with health-related measurements such as heart rate, locomotor activity levels, and lifespan.

For series [1], the system named is animals with hypoxic-ischemic injuries caused by middle cerebral artery occlusion. The following applies: MCaO; cited from earlier work.
In series [2] the test system is hemizygous MeCP2(1lox) male mice. The class given is in vivo. The following applies: for time to 50 percent death: 20 mg/kg/day i.p. From the text: To determine whether G-2-MePE treatment can impact the development and progression of Rett Syndrome in a murine model of the disorder, we used hemizygous MeCP2(1lox) male mice. The MeCP2 knock-out (MeCP2-KO) mouse system is widely accepted in the art as closely mimicking the range and the severity of physiological and neurological abnormalities characteristic of the human disorder, Rett Syndrome.

Series [3] has as its system hippocampal slices of heterozygous Shank3-deficient mice. The series is described as follows: Shank3-deficient mouse model, hippocampal slice electrophysiology. Format: in vivo. The following applies: 15 or 60 mg/kg oral b.i.d. for 14 days. On the procedure: 1 to 3 month old wild type and heterozygous Shank3-deficient mice are divided into 4 treatment groups: placebo treated wild-type, placebo treated Shank3-deficient group and two Shank3-deficient G-2-MePE treated groups. The animals are given placebo (water) or G-2-MePE formulated in water administered orally, b.i.d for 14 days. G-2-MePE is administered at two doses: 15 or 60 mg/kg.
Post-mortem, acute hippocampal slices (350 μm) are prepared from mice using a tissue chopper. Slices are maintained and experiments are conducted at 32° C. Slices are perfused with Ringer's solution containing (in mM): NaCl, 125.0; KCl, 2.5; MgSO4, 1.3; NaH2PO4, 1.0; NaHCO3, 26.2; CaCl2, 2.5; glucose, 11.0. The Ringer's solution is bubbled with 95% O2/5% CO2, at 32° C., during extracellular recordings (electrode solution: 3 M NaCl). Slices are maintained for 1 hr prior to establishment of a baseline of field excitatory postsynaptic potentials (fEPSPs) recorded from stratum radiatum in area CA1, evoked by stimulation of the Schaffer collateral-commissural afferents (100 μs pulses every 30 s) with bipolar tungsten electrodes placed into area CA3. Test stimulus intensity is adjusted to obtain fEPSPs with amplitudes that are one-half of the maximal response. The EPSP initial slope (mV/ms) is determined from the average waveform of four consecutive responses. Input-output (I/O) curves are generated by plotting the fEPSP slope versus fiber volley amplitude in low-Mg^2+ (0.1 mM) solution. AMPA receptor-mediated and NMDA receptor-mediated I/O relationships are measured in the presence of ionotropic glutamate receptor antagonists: […] APV (50 μM) and 6-cyano-7-nitroquinoxaline-2,3-dione CNQX (100 μM). Paired-pulse responses are measured with interstimulus intervals of 10 to 200 ms, and are expressed as the ratio of the average responses to the second stimulation pulse to the first stimulation pulse. […]

[4] abbreviates: vs placebo treated Shank3-deficient group.

As for `C[C@@]1(C(=O)N[C@@H](CCC(=O)O)C(=O)O)CCCN1C(=O)CN` [Example G-2-MePE, Glycyl-L-2-methylprolyl-L-glutamic acid] (H-Gly-[αMeP]-Glu-OH), the “increase in life expectancy (0.5 probability survival rate)” value in the series on MeCP2-/y mice was around 50%. Besides, in series [1], the “non-convulsive seizures (NCS)” value is given as “inhibit”. For the same compound, in series [2] (data initially presented), the “time to 50 percent death” value was 16 weeks. Also, the “time to 50 percent death” value in series [2] (re-examination with control group re-run) turned out to be 16 weeks. Besides, the “safety in mecp2 mice” value in series [2] (mouse, in vivo) is “No safety concerns”. Also, the “AMPA receptor-mediated field potentials” value in series [3] is “normalizes”. Also, in series [3] (setting [4]), the “average slope of I/O function” value is listed as “increase”; the “hippocampal long-term potentiation (LTP) and its maintenance” value is on record as “increased”.
